Test results from ChEMBL document CHEMBL6103552, “Identification of peptide-based hepatitis B virus capsid inhibitors based on the viral core protein” (Bioorg Med Chem Lett, 2025).
The source made the active and inactive calls. How the calls were made is not given here. Residues, ends and D or L forms follow the SMILES beside them.

target: Core antigen (Hepatitis B virus) (UniProt Q03732); test: Inhibition of Hepatitis B virus capsid formation at 100 uM treated during cell-free wild type HBV Cp synthesis using wheat germ lysates and HBV Cp RNA by Native capsid assay based western blot analysis; format: subcellular
Sequence (Q03732 as listed by the source): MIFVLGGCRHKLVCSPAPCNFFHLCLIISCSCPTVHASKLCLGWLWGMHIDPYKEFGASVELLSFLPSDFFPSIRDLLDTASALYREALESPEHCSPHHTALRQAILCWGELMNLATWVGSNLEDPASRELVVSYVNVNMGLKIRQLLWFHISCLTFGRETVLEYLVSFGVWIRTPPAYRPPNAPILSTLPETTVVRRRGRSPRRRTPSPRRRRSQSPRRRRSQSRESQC

| SMILES | inhibition |
| --- | --- |
| CC(=O)N1CCC[C@H]1C(=O)N[C@@H](CCCNC(=N)N)C(=O)N[C@@H](CCCNC(=N)N)C(=O)N[C@@H](CCCNC(=N)N)C(=O)N[C@H](C(=O)N1CCC[C@H]1C(=O)N[C@@H](CO)C(=O)N1CCC[C@H]1C(=O)N[C@@H](CCCNC(=N)N)C(=O)N[C@@H](CCCNC(=N)N)C(=O)N[C@@H](CCCNC(=N)N)C(=O)N[C@@H](CCCNC(=N)N)C(=O)N[C@@H](CO)C(=O)N[C@@H](CCC(N)=O)C(=O)N[C@@H](CO)C(N)=O)[C@@H](C)O (Ac-PRRRTPSPRRRRSQS-NH2) | inactive |
| CC(=O)N1CCC[C@H]1C(=O)N[C@@H](CO)C(=O)N1CCC[C@H]1C(=O)N[C@@H](CCCNC(=N)N)C(=O)N[C@@H](CCCNC(=N)N)C(=O)N[C@@H](CCCNC(=N)N)C(=O)N[C@@H](CCCNC(=N)N)C(=O)N[C@@H](CO)C(=O)N[C@@H](CCC(N)=O)C(=O)N[C@@H](CO)C(=O)N1CCC[C@H]1C(=O)N[C@@H](CCCNC(=N)N)C(=O)N[C@@H](CCCNC(=N)N)C(=O)N[C@@H](CCCNC(=N)N)C(=O)N[C@@H](CCCNC(=N)N)C(N)=O (Ac-PSPRRRRSQSPRRRR-NH2) | inactive |
| CC(=O)N[C@@H](CCC(N)=O)C(=O)N[C@@H](CO)C(=O)N1CCC[C@H]1C(=O)N[C@@H](CCCNC(=N)N)C(=O)N[C@@H](CCCNC(=N)N)C(=O)N[C@@H](CCCNC(=N)N)C(=O)N[C@@H](CCCNC(=N)N)C(=O)N[C@@H](CO)C(=O)N[C@@H](CCC(N)=O)C(=O)N[C@@H](CO)C(=O)N[C@@H](CCCNC(=N)N)C(=O)N[C@@H](CCC(=O)O)C(=O)N[C@@H](CO)C(=O)N[C@@H](CCC(N)=O)C(=O)N[C@@H](CS)C(N)=O (Ac-QSPRRRRSQSRESQC-NH2) | inactive |
| CC(=O)N[C@@H](CCCNC(=N)N)C(=O)N[C@@H](CCCNC(=N)N)C(=O)NCC(=O)N[C@@H](CCCNC(=N)N)C(=O)N[C@@H](CO)C(=O)N1CCC[C@H]1C(=O)N[C@@H](CCCNC(=N)N)C(=O)N[C@@H](CCCNC(=N)N)C(=O)N[C@@H](CCCNC(=N)N)C(=O)N[C@H](C(=O)N1CCC[C@H]1C(=O)N[C@@H](CO)C(=O)N1CCC[C@H]1C(=O)N[C@@H](CCCNC(=N)N)C(=O)N[C@@H](CCCNC(=N)N)C(N)=O)[C@@H](C)O (Ac-RRGRSPRRRTPSPRR-NH2) | inactive |
| CC(=O)N[C@@H](CCCNC(=N)N)C(=O)N[C@@H](CCCNC(=N)N)C(=O)N[C@@H](CO)C(=O)N[C@@H](CCC(N)=O)C(=O)N[C@@H](CO)C(=O)N1CCC[C@H]1C(=O)N[C@@H](CCCNC(=N)N)C(=O)N[C@@H](CCCNC(=N)N)C(=O)N[C@@H](CCCNC(=N)N)C(=O)N[C@@H](CCCNC(=N)N)C(=O)N[C@@H](CO)C(=O)N[C@@H](CCC(N)=O)C(=O)N[C@@H](CO)C(=O)N[C@@H](CCCNC(=N)N)C(=O)N[C@@H](CCC(=O)O)C(N)=O (Ac-RRSQSPRRRRSQSRE-NH2) | inactive |
| CC(=O)N[C@@H](CO)C(=O)N[C@@H](CS)C(=O)N[C@@H](CC(C)C)C(=O)N[C@H](C(=O)N[C@@H](Cc1ccccc1)C(=O)NCC(=O)N[C@@H](CCCNC(=N)N)C(=O)N[C@@H](CCC(=O)O)C(=O)N[C@H](C(=O)N[C@H](C(=O)N[C@@H](CC(C)C)C(=O)N[C@@H](CCC(=O)O)C(=O)N[C@@H](Cc1ccc(O)cc1)C(=O)N[C@@H](CC(C)C)C(=O)N[C@H](C(N)=O)C(C)C)C(C)C)[C@@H](C)O)[C@@H](C)O (Ac-SCLTFGRETVLEYLV-NH2) | inactive |
| CC(=O)N[C@H](C(=O)N[C@H](C(=O)N[C@H](C(=O)N[C@H](C(=O)N[C@@H](CCCNC(=N)N)C(=O)N[C@@H](CCCNC(=N)N)C(=O)N[C@@H](CCCNC(=N)N)C(=O)NCC(=O)N[C@@H](CCCNC(=N)N)C(=O)N[C@@H](CO)C(=O)N1CCC[C@H]1C(=O)N[C@@H](CCCNC(=N)N)C(=O)N[C@@H](CCCNC(=N)N)C(=O)N[C@@H](CCCNC(=N)N)C(=O)N[C@H](C(N)=O)[C@@H](C)O)C(C)C)C(C)C)[C@@H](C)O)[C@@H](C)O (Ac-TTVVRRRGRSPRRRT-NH2) | inactive |
| CSCC[C@H](NC(=O)[C@H](CC(N)=O)NC(=O)[C@@H](NC(=O)[C@H](CC(N)=O)NC(=O)[C@@H](NC(=O)[C@H](Cc1ccc(O)cc1)NC(=O)[C@H](CO)NC(=O)[C@@H](NC(C)=O)C(C)C)C(C)C)C(C)C)C(=O)NCC(=O)N[C@@H](CC(C)C)C(=O)N[C@@H](CCCCN)C(=O)N[C@@H](Cc1ccccc1)C(=O)N[C@@H](CCCNC(=N)N)C(=O)N[C@@H](CCC(N)=O)C(=O)N[C@@H](CC(C)C)C(N)=O (Ac-VSYVNVNMGLKFRQL-NH2) | inactive |
| CC(C)C[C@H](NC(=O)[C@H](C)NC(=O)[C@@H](NC(=O)[C@H](Cc1c[nH]cn1)NC(=O)[C@H](Cc1c[nH]cn1)NC(=O)[C@@H]1CCCN1C(=O)[C@H](CO)NC(=O)[C@H](CS)NC(=O)[C@H](Cc1c[nH]cn1)NC(=O)[C@H](CCC(=O)O)NC(=O)[C@@H]1CCCN1C(=O)[C@H](CO)NC(=O)[C@H](CCC(=O)O)NC(=O)[C@H](CC(C)C)NC(=O)[C@H](C)N)[C@@H](C)O)C(N)=O (H-ALESPEHCSPHHTAL-NH2) | inactive |
| CC(C)C[C@H](NC(=O)[C@H](C)N)C(=O)N[C@@H](Cc1ccc(O)cc1)C(=O)N[C@@H](CCCNC(=N)N)C(=O)N[C@@H](CCC(=O)O)C(=O)N[C@@H](C)C(=O)N[C@@H](CC(C)C)C(=O)N[C@@H](CCC(=O)O)C(=O)N[C@@H](CO)C(=O)N1CCC[C@H]1C(=O)N[C@@H](CCC(=O)O)C(=O)N[C@@H](Cc1c[nH]cn1)C(=O)N[C@@H](CS)C(=O)N[C@@H](CO)C(=O)N1CCC[C@H]1C(N)=O (H-ALYREALESPEHCSP-NH2) | inactive |
| CC[C@H](C)[C@H](NC(=O)[C@@H]1CCCN1C(=O)[C@H](C)NC(=O)[C@H](CC(N)=O)NC(=O)[C@@H]1CCCN1C(=O)[C@@H]1CCCN1C(=O)[C@H](CCCNC(=N)N)NC(=O)[C@H](Cc1ccc(O)cc1)NC(=O)[C@H](C)N)C(=O)N[C@@H](CC(C)C)C(=O)N[C@@H](CO)C(=O)N[C@H](C(=O)N[C@@H](CC(C)C)C(=O)N1CCC[C@H]1C(=O)N[C@@H](CCC(=O)O)C(N)=O)[C@@H](C)O (H-AYRPPNAPILSTLPE-NH2) | inactive |
| CC[C@H](C)[C@H](NC(=O)[C@H](C)NC(=O)[C@H](CCC(N)=O)NC(=O)[C@@H]1CCCN1C(=O)[C@H](CC(C)C)NC(=O)[C@H](C)NC(=O)[C@@H](NC(=O)[C@H](Cc1c[nH]cn1)NC(=O)[C@H](Cc1c[nH]cn1)NC(=O)[C@@H]1CCCN1C(=O)[C@H](CO)NC(=O)[C@H](CS)NC(=O)[C@H](Cc1c[nH]cn1)NC(=O)[C@@H](N)CCC(=O)O)[C@@H](C)O)C(=O)N[C@@H](CC(C)C)C(N)=O (H-EHCSPHHTALPQAIL-NH2) | inactive |
| CC(C)C[C@H](NC(=O)[C@H](Cc1ccc(O)cc1)NC(=O)[C@H](CCC(=O)O)NC(=O)[C@H](CC(C)C)NC(=O)[C@@H](NC(=O)[C@@H](NC(=O)[C@H](CCC(=O)O)NC(=O)[C@H](CCCNC(=N)N)NC(=O)CN)[C@@H](C)O)C(C)C)C(=O)N[C@H](C(=O)N[C@@H](CO)C(=O)N[C@@H](Cc1ccccc1)C(=O)NCC(=O)N[C@H](C(=O)N[C@@H](Cc1c[nH]c2ccccc12)C(N)=O)C(C)C)C(C)C (H-GRETVLEYLVSFGVW-NH2) | inactive |
| CC[C@H](C)[C@H](NC(=O)[C@H](C)NC(=O)[C@H](CCC(N)=O)NC(=O)[C@@H]1CCCN1C(=O)[C@H](CC(C)C)NC(=O)[C@H](C)NC(=O)[C@@H](NC(=O)[C@H](Cc1c[nH]cn1)NC(=O)[C@@H](N)Cc1c[nH]cn1)[C@@H](C)O)C(=O)N[C@@H](CC(C)C)C(=O)N[C@@H](CS)C(=O)N[C@@H](Cc1c[nH]c2ccccc12)C(=O)NCC(=O)N[C@@H](CCC(=O)O)C(=O)N[C@@H](CC(C)C)C(N)=O (H-HHTALPQAILCWGEL-NH2) | inactive |
| CC[C@H](C)[C@H](N)C(=O)N[C@@H](CCCNC(=N)N)C(=O)N[C@H](C(=O)N1CCC[C@H]1C(=O)N1CCC[C@H]1C(=O)N[C@@H](C)C(=O)N[C@@H](Cc1ccc(O)cc1)C(=O)N[C@@H](CCCNC(=N)N)C(=O)N1CCC[C@H]1C(=O)N1CCC[C@H]1C(=O)N[C@@H](CC(N)=O)C(=O)N[C@@H](C)C(=O)N1CCC[C@H]1C(=O)N[C@H](C(=O)N[C@@H](CC(C)C)C(N)=O)[C@@H](C)CC)[C@@H](C)O (H-IRTPPAYRPPNAPIL-NH2) | inactive |
| CC[C@H](C)[C@H](NC(=O)[C@H](Cc1c[nH]cn1)NC(=O)[C@H](Cc1ccccc1)NC(=O)[C@H](Cc1c[nH]c2ccccc12)NC(=O)[C@H](CC(C)C)NC(=O)[C@H](CC(C)C)NC(=O)[C@H](CCC(N)=O)NC(=O)[C@H](CCCNC(=N)N)NC(=O)[C@H](Cc1ccccc1)NC(=O)[C@@H](N)CCCCN)C(=O)N[C@@H](CO)C(=O)N[C@@H](CS)C(=O)N[C@@H](CC(C)C)C(=O)N[C@H](C(=O)N[C@@H](Cc1ccccc1)C(N)=O)[C@@H](C)O (H-KFRQLLWFHISCLTF-NH2) | inactive |
| CC(C)C[C@H](NC(=O)[C@H](C)NC(=O)[C@H](CO)NC(=O)[C@H](C)NC(=O)[C@@H](NC(=O)[C@H](CC(=O)O)NC(=O)[C@@H](N)CC(C)C)[C@@H](C)O)C(=O)N[C@@H](Cc1ccc(O)cc1)C(=O)N[C@@H](CCCNC(=N)N)C(=O)N[C@@H](CCC(=O)O)C(=O)N[C@@H](C)C(=O)N[C@@H](CC(C)C)C(=O)N[C@@H](CCC(=O)O)C(=O)N[C@@H](CO)C(=O)N1CCC[C@H]1C(N)=O (H-LDTASALYREALESP-NH2) | inactive |
| CC[C@H](C)[C@H](NC(=O)[C@H](Cc1c[nH]c2ccccc12)NC(=O)[C@@H](NC(=O)CNC(=O)[C@H](Cc1ccccc1)NC(=O)[C@H](CO)NC(=O)[C@@H](NC(=O)[C@H](CC(C)C)NC(=O)[C@H](Cc1ccc(O)cc1)NC(=O)[C@H](CCC(=O)O)NC(=O)[C@@H](N)CC(C)C)C(C)C)C(C)C)C(=O)N[C@@H](CCCNC(=N)N)C(=O)N[C@H](C(=O)N1CCC[C@H]1C(=O)N1CCC[C@H]1C(N)=O)[C@@H](C)O (H-LEYLVSFGVWIRTPP-NH2) | inactive |
| CC[C@H](C)[C@H](NC(=O)[C@H](Cc1c[nH]cn1)NC(=O)[C@H](Cc1ccccc1)NC(=O)[C@H](Cc1c[nH]c2ccccc12)NC(=O)[C@@H](N)CC(C)C)C(=O)N[C@@H](CO)C(=O)N[C@@H](CS)C(=O)N[C@@H](CC(C)C)C(=O)N[C@H](C(=O)N[C@@H](Cc1ccccc1)C(=O)NCC(=O)N[C@@H](CCCNC(=N)N)C(=O)N[C@@H](CCC(=O)O)C(=O)N[C@H](C(=O)N[C@H](C(N)=O)C(C)C)[C@@H](C)O)[C@@H](C)O (H-LWFHISCLTFGRETV-NH2) | inactive |
